This is an account of results in US7829063B2, “Development of molecular imaging probes for carbonic anhydrase-IX using click chemistry” (Siemens Medical Solutions USA, Inc., priority 2007, dated 2010).

The target of the first experiment is T1, CA-IX (Homo sapiens, UniProt Q16790).
T1 construct: His tag (C); purchased R&D Systems Inc. 2188-CA; host or cells: mouse myeloma cell line NS0
Description: CA-IX combinatorial library screening, competitive fluorescence-based assay with dansylamide (DNSA). It is filed as binding. Conditions: 1 h; Table 1, Libraries 1-3; sample concentrations 100 nM and 1000 nM, DNSA 200 μM; screening at 1 μM; read-out: In Vitro Binding Assay (Library Screening). Here is the method: General. CA-IX human recombinant enzyme was expressed with a C-terminal His tag in a mouse myeloma cell line, NS0 (R&D Systems Inc., catalog number 2188-CA). The human red blood cells were obtained from Research Blood Components, LLC. All absorbance measurements were performed on a SPECTRA MAX M2 plate reader at 25° C. The LC/MS analyses were performed on an Agilent 1100 series LC/MSD (SL) using a 30×2.1 mm Zorbax C8 column with a Phenomenex C18 pre-column. Compound detection was accomplished by electrospray mass spectroscopy in positive selected ion mode (LC/MS-SIM). The elution solvents were acetonitrile and water, contained 0.05% TFA. Nuclear magnetic resonance (NMR) spectra were obtained on a Bruker AMX 300 MHz spectrometer or a Varian 400. 19F NMR spectra were recorded on a Bruker AMX 282.35 MHz or a Varian 400 spectrometer. The mass spectra were recorded on an Agilent 1100 series LC/MSD with electrospray mass spectroscopic detection. Flash column chromatography was performed on Merck silica gel (40-63 μm) using the solvent system indicated. The radiochemical and chemical purities were analyzed by RP-HPLC.
General Combinatorial Library Screening Protocol for CA-IX
The CA-IX screening assay was employed for testing libraries derived from the various “anchor” molecules, using ethoxzolamide as a positive control. The assay was performed at a substrate (dansylamide, DNSA) concentration of 200 μM, and sample concentrations of 100 nM and 1000 nM, respectively. A modified competitive fluorescence-based assay (A. Jain, S. G. Huang, G. M. Whitesides, J. Am. Chem. Soc. 1994, 116, 5057) was used to measure CA-IX activity. The enzymatic assay was carried out in a 96-well plate. To the wells, deionized water, 40 μL of phosphate buffer (250 mM, pH 7.4), 2.4 μL of CA-IX (17 μM), and 2 μL or 20 μL of inhibitor (concentration of 100 nM or 1000 nM) were added to achieve a final volume of 180 μL. Reactions were initiated by adding 20 μL DNSA (200 μM) to each well and the plate was incubated at 25° C. for 1 hour. The fluorescence intensities from each well of the plate were then read at 460 nm using a plate reader with an excitation wavelength of 290 nm.
`Cc1ccc(CNC(=O)[C@@H](C(C)C)n2cc(-c3ccc(S(N)(=O)=O)cc3)nn2)cc1F` [DHK20]: the inhibition at 1 µM was < 40%.
On the same count and under the same terms, next, `NS(=O)(=O)c1nc2ccc(OCc3cn(-c4cccc(C(=O)NN5CCOCC5)c4)nn3)cc2s1` [DHK116]: < 40%.
For the compound `Cc1ccc(C)c(CNC(=O)[C@H](Cc2ccccc2)n2cc(CNC(=O)c3ccc(S(N)(=O)=O)cc3)nn2)c1` [DHK45], the inhibition at 1 µM was < 40%.
Same read-out and setting: the same measure for `CCOC(=O)c1ccc(Cn2cc(-c3ccc(S(N)(=O)=O)cc3)nn2)cc1` [DHK22]: < 40%.
Consider `Cc1cc(NC(=O)Cn2cc(-c3ccc(S(N)(=O)=O)cc3)nn2)n(C)n1` [DHK26], for which the inhibition at 1 µM is < 40%.
The same measure, in the same setting: the same measure for `CC(C)[C@@H](C(=O)NCCc1ccsc1)n1cc(CNC(=O)c2ccc(S(N)(=O)=O)cc2)nn1` [DHK91]: < 40%; for `CC(C)[C@@H](C(=O)NCCc1ccsc1)n1cc(COc2ccc3nc(S(N)(=O)=O)sc3c2)nn1` [DHK139]: < 40%; for `NS(=O)(=O)c1ccc(C(=O)NCc2cn(-c3ccnc4cc(Cl)ccc34)nn2)cc1` [DHK86]: < 40%.
The same measure, in the same setting: the same measure for `NS(=O)(=O)c1nc2ccc(OCc3cn(CCCCCCO)nn3)cc2s1` [DHK137]: < 40%; for `NS(=O)(=O)c1nc2ccc(OCc3cn(C(c4ccccc4)[C@@H](OC/C=C/c4ccccc4)c4ccccc4)nn3)cc2s1` (stereo partly drawn) [DHK138]: < 40%.
Regarding `CC(C)[C@@H](C(=O)NC1CCCCC1)n1cc(COc2ccc3nc(S(N)(=O)=O)sc3c2)nn1` [DHK124], the inhibition at 1 µM was < 40%.
As for `COC(=O)C(Cc1ccc(C(=O)O)cc1)n1cc(-c2ccc(S(N)(=O)=O)cc2)nn1` (stereo not drawn) [DHK67], the inhibition at 1 µM was < 40%.
As to `NS(=O)(=O)c1ccc(C(=O)NCc2cn(CC(=O)N3CCN(c4cc(Cl)cc(Cl)c4)CC3)nn2)cc1` [DHK94], the inhibition at 1 µM was < 40%.
`NS(=O)(=O)c1ccc(C(=O)NCc2cn(Cc3cccc(Br)c3)nn2)cc1` [DHK47]: the inhibition at 1 µM was < 40%.
Turning to `CCCCCC[C@H](O)[C@@H](O)c1ccc(Cn2cc(-c3ccc(S(N)(=O)=O)cc3)nn2)cc1` [DHK70], the inhibition at 1 µM is < 40%.
On to `NS(=O)(=O)c1ccc(-c2cn(CC(O)CN3C(=O)c4ccccc4C3=O)nn2)cc1` (stereo not drawn) [DHK8], for which the inhibition at 1 µM is < 40%.
For `CC(C)[C@H](C(=O)NCc1ccccc1)n1cc(-c2ccc(S(N)(=O)=O)cc2)nn1` [DHK23], the inhibition at 1 µM is < 40%.
Still for that read-out and setting: next, `NS(=O)(=O)c1ccc(-c2cn(CCOc3ccc4ccc(=O)oc4c3)nn2)cc1` [DHK63]: < 40%; `NCCCn1cc(-c2ccc(S(N)(=O)=O)cc2)nn1` [DHK108]: < 40%.
Same read-out and setting: next, `NS(=O)(=O)c1ccc(-c2cn(Cc3nc4ccccc4[nH]3)nn2)cc1` [DHK27]: < 40%.
On to `CC(C)C(C(=O)NCc1cc(F)ccc1F)n1cc(CNC(=O)c2ccc(S(N)(=O)=O)cc2)nn1` (stereo not drawn) [DHK40], for which the inhibition at 1 µM is < 40%.
Turning to `NS(=O)(=O)c1ccc(-c2cn(C3CCN(S(=O)(=O)/C=C/c4ccccc4)CC3)nn2)cc1` [DHK109], the inhibition at 1 µM was < 40%.
Same read-out and setting: the same measure for `NS(=O)(=O)c1ccc(-c2cn(CCC(=O)Nc3ccccc3)nn2)cc1` [DHK102]: < 40%; for `CC(C)[C@@H](C(=O)O)n1cc(-c2ccc(S(N)(=O)=O)cc2)nn1` [DHK66]: < 40%; for `NS(=O)(=O)c1ccc(C(=O)NCc2cn(Cn3nnc4ccccc43)nn2)cc1` [DHK55]: < 40%.
As for `NS(=O)(=O)c1ccc(-c2cn(CC(=O)N3CCN(c4cc(Cl)cc(Cl)c4)CC3)nn2)cc1` [DHK107], the inhibition at 1 µM was < 40%.
The same measure, in the same setting: next, `COC(=O)C(Cc1ccc(C(=O)O)cc1)n1cc(COc2ccc3nc(S(N)(=O)=O)sc3c2)nn1` (stereo not drawn) [DHK129]: < 40%; `CC(C)C(C(=O)NCCCN1CCOCC1)n1cc(CNC(=O)c2ccc(S(N)(=O)=O)cc2)nn1` (stereo not drawn) [DHK58]: < 40%.
On the same count and under the same terms, next, `CC(C)[C@@H](C(=O)Nc1ccc(-c2ccccc2)cc1)n1cc(CNC(=O)c2ccc(S(N)(=O)=O)cc2)nn1` [DHK61]: < 40%.
`CC(C)C[C@@H](C(=O)NCc1ccccc1)n1cc(CNC(=O)c2ccc(S(N)(=O)=O)cc2)nn1` [DHK41]: the inhibition at 1 µM was < 40%.
The same measure, in the same setting: next, `NS(=O)(=O)c1nc2ccc(OCc3cn(CC(=O)N4CCN(c5cc(Cl)cc(Cl)c5)CC4)nn3)cc2s1` [DHK141]: < 40%; `NS(=O)(=O)c1ccc(-c2cn(CCCCCCO)nn2)cc1` [DHK73]: < 40%; `CC(C)(C)c1cc(C(=O)Cn2cc(COc3ccc4nc(S(N)(=O)=O)sc4c3)nn2)cc(C(C)(C)C)c1O` [DHK132]: < 40%.
Still for that read-out and setting: next, `CC(C)[C@@H](C(=O)NCc1ccco1)n1cc(CNC(=O)c2ccc(S(N)(=O)=O)cc2)nn1` [DHK54]: < 40%.

Still in this experiment, the particulars now being: 1 h; Table 2, Libraries 4-7; sample concentrations 100 nM and 1000 nM, DNSA 200 μM; screening at 1 μM; read-out: In Vitro Binding Assay (Library (Screening)).
Turning to `NS(=O)(=O)c1ccc(-c2cn([C@@H](Cc3ccccc3)C(=O)NCCN3CCN(Cc4ccccc4)CC3)nn2)cc1` [DHK-2-23], the inhibition at 1 µM is < 40%.
As for `CC(C)[C@@H](C(=O)NCc1ccc(-c2ccccn2)s1)n1cc(COc2ccc3nc(S(N)(=O)=O)sc3c2)nn1` [DHK-2-29], the inhibition at 1 µM was < 40%.
On to `NS(=O)(=O)c1nc2ccc(OCc3cn([C@@H](Cc4ccccc4)C(=O)N4CCC[C@@H]4CO)nn3)cc2s1` [DHK-2-57], for which the inhibition at 1 µM was < 40%.
The same measure, in the same setting: next, `CC(C)[C@@H](C(=O)NCC1COc2ccccc2O1)n1cc(-c2ccc(S(N)(=O)=O)cc2)nn1` (stereo partly drawn) [DHK187]: < 40%.
In the case of `NS(=O)(=O)c1ccc(-c2cn([C@@H](Cc3ccccc3)C(=O)N3CCC(N4CCCC4)CC3)nn2)cc1` [DHK-2-21], the inhibition at 1 µM is < 40%.
The same measure, in the same setting: the same measure for `NS(=O)(=O)c1nc2ccc(OCc3cn([C@@H](Cc4ccccc4)C(=O)NC4CCCCC4)nn3)cc2s1` [DHK-2-63]: < 40%.
Turning to `CCOC(=O)C(Cc1ccccc1)NC(=O)[C@H](C(C)C)n1cc(COc2ccc3nc(S(N)(=O)=O)sc3c2)nn1` (stereo partly drawn) [DHK-2-32], the inhibition at 1 µM is < 40%.
For `CC(C)[C@@H](C(=O)NC1c2ccccc2C[C@@H]1O)n1cc(-c2ccc(S(N)(=O)=O)cc2)nn1` (stereo partly drawn) [DHK186], the inhibition at 1 µM was < 40%.
Take `CC(C)[C@@H](C(=O)NCCN1CCN(Cc2ccccc2)CC1)n1cc(-c2ccc(S(N)(=O)=O)cc2)nn1` [DHK191]: the inhibition at 1 µM is < 40%.
Take `CC(C)[C@@H](C(=O)N1CCN(c2ccccn2)CC1)n1cc(COc2ccc3nc(S(N)(=O)=O)sc3c2)nn1` [DHK-2-31]: the inhibition at 1 µM is < 40%.
Same read-out and setting: next, `CCOC(=O)C(NC(=O)[C@H](C(C)C)n1cc(COc2ccc3nc(S(N)(=O)=O)sc3c2)nn1)C(C)C` (stereo partly drawn) [DHK-2-33]: < 40%.
Still for that read-out and setting: the same measure for `NS(=O)(=O)c1nc2ccc(OCc3cn([C@@H](Cc4ccccc4)C(=O)NCCN4CCN(Cc5ccccc5)CC4)nn3)cc2s1` [DHK-2-74]: < 40%.
On the same count and under the same terms, the same measure for `CN(C)Cc1ccc(CSCCNC(=O)[C@H](Cc2ccccc2)n2cc(COc3ccc4nc(S(N)(=O)=O)sc4c3)nn2)o1` [DHK-2-54]: < 40%.
Regarding `Cn1c(CNC(=O)[C@H](Cc2ccccc2)n2cc(COc3ccc4nc(S(N)(=O)=O)sc4c3)nn2)nc2ccccc21` [DHK-2-73], the inhibition at 1 µM is < 40%.
As to `NS(=O)(=O)c1nc2ccc(OCc3cn([C@@H](Cc4ccccc4)C(=O)NCc4ccc(-c5ccccn5)s4)nn3)cc2s1` [DHK-2-56], the inhibition at 1 µM is < 40%.

Staying with this experiment, now noted: Table 2, Libraries 4-7; sample concentrations 100 nM and 1000 nM, DNSA 200 μM; screening at 1 μM.
Consider `Cc1onc(-c2ccccc2)c1CNC(=O)[C@H](Cc1ccccc1)n1cc(COc2ccc3nc(S(N)(=O)=O)sc3c2)nn1` [DHK-2-66], for which the “In Vitro Binding Assay (Library Screening)” value (“In Vitro Binding Assay” below) is listed as “√ √”.
Turning to `NS(=O)(=O)c1nc2ccc(OCc3cn([C@@H](Cc4ccccc4)C(=O)NCC4COc5ccccc5O4)nn3)cc2s1` (stereo partly drawn) [DHK-2-71], the “In Vitro Binding Assay” value was “√”.
Consider `CCOC(=O)C1CCN(C(=O)[C@H](Cc2ccccc2)n2cc(COc3ccc4nc(S(N)(=O)=O)sc4c3)nn2)CC1` [DHK-2-68], for which the “In Vitro Binding Assay” value is on record as “√”.
Same read-out and setting: next, `CC(C)[C@@H](C(=O)NCc1ccc(C(F)(F)F)cc1)n1cc(COc2ccc3nc(S(N)(=O)=O)sc3c2)nn1` [DHK-2-24]: “√ √”.
For the compound `CC(C)[C@@H](C(=O)NCC1COc2ccccc2O1)n1cc(COc2ccc3nc(S(N)(=O)=O)sc3c2)nn1` (stereo partly drawn) [DHK-2-44], the “In Vitro Binding Assay” value is reported as “√”.
